{"source": "patent US10799477B2", "about": "“Pharmaceutical composition for preventing or treating LDL cholesterol-related diseases, containing ribosome-binding preparation” (PUSAN NATIONAL UNIVERSITY INDUSTRY UNIVERSITY, priority 2016, dated 2020)", "key": {"[1]": {"test_system": "LDLR", "assay": "Protein level of LDLR in HCT-8 cells, Western blot", "assay_type": "cell-based, human", "details": "whole cell lysates, FIG. 9", "description": "Further, HCT-8 cells were treated with vehicle or 1000 ng/ml DON for the indicated time. Thereafter, protein levels of LDLR were measured using whole cell lysates via Western blots. Specifically, the cells were washed with phosphate buffer. Subsequently, the cells were dissolved in lysis buffer (1% [w/v] SDS, 1.0 mM sodium orthovanadate, and 10 mM Tris [pH 7.4]). The lysate was sonicated for 5 seconds. The lysate was quantitated using the BCA protein assay kit (Pierce, Rockford, Ill., USA). Subsequently, immunoblotting was carried out to confirm the level of the protein in the cells. The results are illustrated in FIG. 9."}, "[2]": {"test_system": "HCT-8 cells", "assay": "Lipid droplets in HCT-8 cells, Oil Red O staining", "assay_type": "cell-based, human", "details": "1000 mg/ml DON or 2 μM ANS, 24 h, FIG. 2", "description": "To confirm the effect of ribosome inactivation on fat accumulation, enterocyte and hepatocyte exposed to ribosome inactivation stress using the ribosome-binding agent were stained with Oil Red O.\nSpecifically, HCT-8 cells and HepG2 cells were obtained from the American Type Culture Collection (ATCC Rockville, Md., USA). HCT-8 and HepG2 cells were treated with vehicle, […], or 2 μM anisomycin (ANS) for 24 h. […] The staining results of HCT-8 cells are illustrated in FIG. 2 and the staining results of HepG2 cells are illustrated in FIG. 3."}, "[3]": {"test_system": "LDLR", "assay": "mRNA level of LDLR in HepG2 cells, real-time RT-PCR", "assay_type": "cell-based, human", "details": "HepG2 cells, 100, 500, 1000 ng/ml DON or 500, 1000, 2000 nM ANS, 1 hour, dose dependent, FIG. 11"}, "[4]": {"test_system": "LDLR", "assay": "mRNA level of LDLR in HCT-8 cells, real-time RT-PCR", "assay_type": "cell-based, human", "details": "HCT-8 cells, 100, 500, 1000 ng/ml DON or 500, 1000, 2000 nM ANS, 2 hours, dose dependent, FIG. 10", "description": "Further, HCT-8 cells were treated with vehicle or 1000 ng/ml DON for the indicated time. In these treated cells, an mRNA level of LDLR was measured using real-time RT-PCR. Specifically, RNA was extracted using RiboEX (GeneAll Biotechnology, Seoul, Korea). Subsequently, the RNA (100 ng) from each sample was transcribed into cDNA using Prime Moloney murine leukemia virus reverse transcriptase (Genetbio, Nonsan, South Korea). The cDNA was then amplified using n-Taq DNA polymerase (Enzynomics, Seoul, South Korea). The amplified cDNA was treated at 95° C. for 2 minutes. The cDNA was then treated for 30 seconds at 95° C., for 30 seconds at 58° C. and for 30 seconds at 72° C. at each of different cycles. The thus treated cDNA was amplified and the amplification thereof was confirmed by electrophoresis. FAM was used as a fluorescent reporter staining drug. FAM was conjugated to a 5′ terminal of a product of the amplified cDNA. The resulting product was subjected to real-time RT-PCR using an iCycler thermal cycler (Bio-Rad). […]\nAdditionally, to determine the effect of chemical ribosome inactivators (DON, ANS) at different doses on the LDLR expression level, HCT-8 cells were treated with vehicle, 0, 100, 500, 1000 ng/ml DON or 0, 500, 1000, 2000 nM ANS for 2 hours. Then, mRNA levels of LDLR in the cells were measured using real-time RT-PCR. […] The mRNA level of the LDLR of the cells was measured. […]"}, "[5]": {"test_system": "LDLR", "assay": "LDLR immunohistochemistry in ileum and jejunum of mice fed DON", "assay_type": "in vivo", "details": "25 mg/kg DON oral feeding, after 24 hours, IHC, FIG. 12", "description": "Further, additional animal studies were performed to determine whether ribosome-inactivation stress increases a level of LDLR expression in the small intestine. Six-week-old male B6C3F1 mice (C57B1/6J×C3H/HeJ) were purchased from Samtako Bio Korea (Osan, South Korea). Animal experiments were performed according to the animal test method as approved in the Laboratory Animal Care Committee (PNU-2010-0291). Vehicle or 25 mg/kg DON was administered to the mice via oral feeding. After 24 hours, immunohistochemistry (IHC) was performed on ileum and jejunum to measure LDLR expression levels. The results are illustrated in FIG. 12."}}, "data": [{"molecule": "COc1ccc(C[C@H]2NC[C@H](O)[C@H]2OC(C)=O)cc1", "note": "[ANS, anisomycin]", "values": [{"measurement": "protein levels of LDLR", "setting": "[1]", "result": "increases"}, {"measurement": "fat accumulation in HCT-8 cells", "setting": "[2]", "result": "dose-dependently increased"}, {"measurement": "mRNA level of LDLR", "setting": "[3]", "result": "increases"}, {"measurement": "mRNA level of LDLR", "setting": "[4]", "result": "increases"}]}, {"molecule": "CC1=C[C@H]2O[C@@H]3[C@H](O)C[C@](C)([C@@]2(CO)[C@H](O)C1=O)[C@]31CO1", "note": "[DON, deoxynivalenol]", "values": [{"measurement": "protein levels of LDLR", "setting": "[1]", "result": "increases"}, {"measurement": "fat accumulation in HCT-8 cells", "setting": "[2]", "result": "dose-dependently increased"}, {"measurement": "mRNA level of LDLR", "setting": "[3]", "result": "increases"}, {"measurement": "level of LDLR expression in the mouse small intestine (villus epithelium of ileum and jejunum)", "setting": "[5]", "result": "increase"}, {"measurement": "mRNA level of LDLR", "setting": "[4]", "result": "increases"}]}]}
